In the NIST ThermoML archive (doi:10.1016/j.jct.2008.01.007):
± gives the expanded uncertainty stated by the source.

Settings: 101 kPa, Liquid

mass density (293.15 K): 1076.58 ± 3.1 kg/m3
viscosity (293.15 K): 26.58 ± 1.8 mPa·s
mass density (303.15 K): 1066.51 ± 3 kg/m3
viscosity (303.15 K): 21.99 ± 1.5 mPa·s
mass density (313.15 K): 1059.19 ± 2.8 kg/m3
viscosity (313.15 K): 17.32 ± 1.2 mPa·s
mass density (323.15 K): 1052.64 ± 2.7 kg/m3
viscosity (323.15 K): 12.86 ± 0.92 mPa·s
mass density (333.15 K): 1046.43 ± 2.6 kg/m3
viscosity (333.15 K): 8.284 ± 0.64 mPa·s
SMILES: OCCN1CCOCC1 [4-morpholineethanol]
